# Experiments:
# [1] = biological target: T1, Neuronal acetylcholine receptor; alpha4/beta2 (Homo sapiens, UniProt P17787+P43681)
# Description: Displacement of [3H]cytisine from human alpha4beta2 nAChR by radioligand competition analysis
# [2] = biological target: T1, Neuronal acetylcholine receptor; alpha4/beta2; remark: listed apart in the source
# Description: Displacement of [3H]cytisine from human alpha4beta2 nAChR by Cheng-Prusoff equation analysis
# [3] = Displacement of [3H]-(-)-nicotine from rat cerebral cortex nAChR incubated for 60 mins by liquid scintillation spectrometry
# [4] = biological target: T2, Neuronal acetylcholine receptor; alpha4/beta2 (Rattus norvegicus) (UniProt P09483+P12390); test: Agonist activity at rat alpha4beta2 expressed in Xenopus oocytes assessed as peak activation at 100 uM relative to control; format: cell-based; details: Oocyte, filed as agonist
# [5] = species: Rattus norvegicus; test: Agonist activity at nAChR in rat striatal synaptosomes assessed as [3H]dopamine release relative to tetramethylammonium; format: subcellular; details: Striatum, filed as agonist
# [6] = system: Torpedo; test: Agonist activity at Torpedo alpha1beta1deltagamma nACHR; details: filed as agonist
# [7] = biological target: T2, Neuronal acetylcholine receptor; alpha4/beta2 (Rattus norvegicus); test: Agonist activity at alpha4beta2 nAChR in rat thalamic synaptosomes assessed as 86Rb efflux relative to tetramethylammonium; format: subcellular; details: Thalamus, filed as agonist
# [8] = biological target: T1, Neuronal acetylcholine receptor; alpha4/beta2; test: Agonist activity at human brain alpha4beta2 nAChR expressed in CHO cells assessed as maximal receptor response by patch clamp electrophysiological assay relative to control; format: cell-based; details: filed as agonist
# [9] = biological target: Neuronal acetylcholine receptor; alpha3/beta4 (Homo sapiens) (UniProt P30926+P32297); test: Agonist activity at human alpha3beta4 nAChR expressed in mouse/rat hybrid F11 cells assessed as increase in rubidium-86 efflux; format: cell-based; details: filed as agonist
# [10] = biological target: Neuronal acetylcholine receptor subunit alpha-7 (Homo sapiens, UniProt P36544); details: filed as agonist
# Description: Agonist activity at human alpha7 nAChR (unknown origin)
# [11] = Neurotoxicity in ip dosed mouse assessed as induction of hindlimb tonic extension; format: toxicity, organism-based; details: in vivo
# [12] = Neurotoxicity in ip dosed mouse assessed as induction of epileptic convulsion; format: toxicity, organism-based; details: in vivo
# [13] = Neurotoxicity in ip dosed mouse assessed as mouse death; format: toxicity, organism-based; details: in vivo
# [14] = biological target: T3, Muscarinic acetylcholine receptor M2 (Rattus norvegicus, UniProt P10980); test: Inhibition of [3H]-methyl-quinuclidinyl benzilate binding to rat heart muscarinic M2 receptor by radioligand binding assay
# T3 sequence (P10980 whole entry): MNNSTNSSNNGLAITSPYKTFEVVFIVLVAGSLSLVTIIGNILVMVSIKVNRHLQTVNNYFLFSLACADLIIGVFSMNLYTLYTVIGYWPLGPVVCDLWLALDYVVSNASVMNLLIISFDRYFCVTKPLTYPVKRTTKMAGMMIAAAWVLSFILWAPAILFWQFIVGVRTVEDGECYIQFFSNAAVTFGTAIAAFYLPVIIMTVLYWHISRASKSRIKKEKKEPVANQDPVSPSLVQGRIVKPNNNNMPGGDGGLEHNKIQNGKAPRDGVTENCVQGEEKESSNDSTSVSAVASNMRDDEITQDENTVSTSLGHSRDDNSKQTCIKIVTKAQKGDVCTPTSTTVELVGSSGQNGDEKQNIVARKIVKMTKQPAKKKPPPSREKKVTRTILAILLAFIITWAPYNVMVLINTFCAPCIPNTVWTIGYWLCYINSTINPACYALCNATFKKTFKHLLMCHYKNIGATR
# [15] = biological target: Muscarinic acetylcholine receptor M3 (Rattus norvegicus, UniProt P08483); test: Inhibition of [3H]-methyl-quinuclidinyl benzilate binding to rat salivary gland muscarinic M3 receptor by radioligand binding assay
# [16] = biological target: T4, Muscarinic acetylcholine receptor M1 (Rattus norvegicus, UniProt P08482); test: Inhibition of [3H]-methyl-quinuclidinyl benzilate binding to rat brain muscarinic M1 receptor by radioligand binding assay
# T4 sequence (P08482 whole entry): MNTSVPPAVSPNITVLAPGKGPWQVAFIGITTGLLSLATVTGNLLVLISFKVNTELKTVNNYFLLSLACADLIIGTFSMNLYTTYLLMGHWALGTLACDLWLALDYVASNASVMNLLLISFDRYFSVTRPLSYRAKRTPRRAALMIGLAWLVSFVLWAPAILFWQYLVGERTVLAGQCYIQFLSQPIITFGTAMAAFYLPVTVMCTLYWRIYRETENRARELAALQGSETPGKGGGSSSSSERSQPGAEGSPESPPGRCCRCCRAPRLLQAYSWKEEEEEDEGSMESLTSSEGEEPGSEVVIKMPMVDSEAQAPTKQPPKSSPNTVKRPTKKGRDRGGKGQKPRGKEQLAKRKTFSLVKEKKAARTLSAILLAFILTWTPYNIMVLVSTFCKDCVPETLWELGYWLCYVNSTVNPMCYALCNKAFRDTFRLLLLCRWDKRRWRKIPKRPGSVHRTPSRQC
# [17] = Induction of neurotoxicity in cray fish measured after 24 hrs; details: procambarus clarkii
# [18] = biological target: T1, Neuronal acetylcholine receptor; alpha4/beta2; test: Agonist activity at human alpha4beta2 nAChR expressed in human K177 cell membrane assessed as increase in 86-rubidium efflux incubated for 5 mins by gamma counting method; format: cell membranes; details: K177cell line, filed as agonist
# [19] = biological target: T5, Muscarinic acetylcholine receptor M1 (Rattus norvegicus) (UniProt P08482); details: filed as antagonist, time 60.0 min
# T5 sequence (whole entry): T4 sequence (P08482 whole entry)
# [20] = biological target: T5, Muscarinic acetylcholine receptor M1 (Rattus norvegicus); details: filed as antagonist, time 40.0 min
# [21] = biological target: T5, Muscarinic acetylcholine receptor M1 (Rattus norvegicus); test: Displacement of [3H]-Pirenzepine from rat cerebral cortex Muscarinic M1 receptor at 10 uM by radioligand binding assay relative to control; details: filed as antagonist
# [22] = species: Rattus norvegicus; test: Displacement of [3H]-Cytisine from rat cerebral cortex nAChR at 10 uM by radioligand binding assay relative to control; details: filed as antagonist
# [23] = biological target: T1, Neuronal acetylcholine receptor; alpha4/beta2; test: Agonist activity at human alpha4beta2 nAChR expressed in Xenopus oocytes relative to control; format: cell-based; details: Oocyte, filed as agonist
# [24] = biological target: Neuronal acetylcholine receptor; alpha4/beta2 (Rattus norvegicus, UniProt P09483+P12390); test: Displacement of [3H]-cytisine from rat brain membrane alpha4beta2 nAChR; format: cell membranes
# [25] = biological target: T1, Neuronal acetylcholine receptor; alpha4/beta2; test: Agonist activity at human alpha4beta2 nAChR expressed in Xenopus oocytes; format: cell-based, Oocyte
# [26] = biological target: Acetylcholinesterase (Homo sapiens, UniProt P22303)
# [27] = species: Cavia porcellus; test: Inhibition of voltage-dependent calcium channel mediated calcium influx in guinea-pig ileum assessed as Cacl2 induced maximal smooth muscle contraction at 490 uM incubated for 15 mins relative to control; format: tissue-based
# [28] = species: Cavia porcellus; test: Inhibition of voltage-dependent calcium channel mediated calcium influx in guinea-pig ileum assessed as Cacl2 induced maximal smooth muscle contraction at 120 uM incubated for 15 mins relative to control; format: tissue-based
# T1 sequence (P17787 whole entry): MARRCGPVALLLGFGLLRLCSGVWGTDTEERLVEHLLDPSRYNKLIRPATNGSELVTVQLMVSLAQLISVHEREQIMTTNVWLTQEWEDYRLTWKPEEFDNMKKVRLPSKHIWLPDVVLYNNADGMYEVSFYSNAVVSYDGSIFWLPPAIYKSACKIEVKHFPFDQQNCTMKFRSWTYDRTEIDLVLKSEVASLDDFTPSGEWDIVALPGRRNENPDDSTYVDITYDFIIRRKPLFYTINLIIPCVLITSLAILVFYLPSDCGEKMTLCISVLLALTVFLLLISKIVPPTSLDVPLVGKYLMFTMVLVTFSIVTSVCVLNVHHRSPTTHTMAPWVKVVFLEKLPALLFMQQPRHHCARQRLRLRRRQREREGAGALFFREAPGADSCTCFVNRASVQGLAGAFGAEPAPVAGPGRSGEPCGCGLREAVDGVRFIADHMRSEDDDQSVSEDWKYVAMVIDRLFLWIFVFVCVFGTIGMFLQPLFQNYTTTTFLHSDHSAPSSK
# T1 sequence (P43681 whole entry): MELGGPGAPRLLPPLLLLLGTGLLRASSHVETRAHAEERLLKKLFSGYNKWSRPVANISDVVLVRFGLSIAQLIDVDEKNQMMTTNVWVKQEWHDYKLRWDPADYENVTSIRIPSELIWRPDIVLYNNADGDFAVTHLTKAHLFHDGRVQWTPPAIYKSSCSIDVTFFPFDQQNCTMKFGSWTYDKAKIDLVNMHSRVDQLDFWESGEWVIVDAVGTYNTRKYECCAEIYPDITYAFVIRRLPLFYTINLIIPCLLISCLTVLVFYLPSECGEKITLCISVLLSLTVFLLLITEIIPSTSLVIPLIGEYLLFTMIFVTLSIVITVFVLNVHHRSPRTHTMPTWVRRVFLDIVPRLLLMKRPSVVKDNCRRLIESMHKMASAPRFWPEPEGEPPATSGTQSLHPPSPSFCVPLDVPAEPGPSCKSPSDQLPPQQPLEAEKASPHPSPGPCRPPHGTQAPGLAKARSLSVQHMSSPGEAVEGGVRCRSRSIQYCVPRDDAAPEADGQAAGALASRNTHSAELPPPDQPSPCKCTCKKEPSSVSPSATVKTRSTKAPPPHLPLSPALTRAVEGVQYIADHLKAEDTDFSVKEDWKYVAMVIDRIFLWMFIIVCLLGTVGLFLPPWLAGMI
# Muscarinic acetylcholine receptor M3, sequence (P08483 whole entry): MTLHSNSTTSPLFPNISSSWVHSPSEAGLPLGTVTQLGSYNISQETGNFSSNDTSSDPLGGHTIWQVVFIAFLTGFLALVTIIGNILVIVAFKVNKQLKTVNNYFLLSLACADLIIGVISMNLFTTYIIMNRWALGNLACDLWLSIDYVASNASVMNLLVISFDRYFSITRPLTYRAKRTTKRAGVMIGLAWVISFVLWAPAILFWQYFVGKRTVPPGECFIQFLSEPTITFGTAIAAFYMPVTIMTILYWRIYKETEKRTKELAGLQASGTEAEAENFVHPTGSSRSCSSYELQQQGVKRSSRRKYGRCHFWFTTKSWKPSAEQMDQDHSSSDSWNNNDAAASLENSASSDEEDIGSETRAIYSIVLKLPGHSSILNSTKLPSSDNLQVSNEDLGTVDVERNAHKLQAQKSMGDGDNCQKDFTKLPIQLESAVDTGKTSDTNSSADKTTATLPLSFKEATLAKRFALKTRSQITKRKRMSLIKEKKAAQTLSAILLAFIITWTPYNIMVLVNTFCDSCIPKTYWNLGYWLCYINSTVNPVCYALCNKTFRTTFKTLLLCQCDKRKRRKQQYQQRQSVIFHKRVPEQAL
# Acetylcholinesterase, sequence (P22303 whole entry): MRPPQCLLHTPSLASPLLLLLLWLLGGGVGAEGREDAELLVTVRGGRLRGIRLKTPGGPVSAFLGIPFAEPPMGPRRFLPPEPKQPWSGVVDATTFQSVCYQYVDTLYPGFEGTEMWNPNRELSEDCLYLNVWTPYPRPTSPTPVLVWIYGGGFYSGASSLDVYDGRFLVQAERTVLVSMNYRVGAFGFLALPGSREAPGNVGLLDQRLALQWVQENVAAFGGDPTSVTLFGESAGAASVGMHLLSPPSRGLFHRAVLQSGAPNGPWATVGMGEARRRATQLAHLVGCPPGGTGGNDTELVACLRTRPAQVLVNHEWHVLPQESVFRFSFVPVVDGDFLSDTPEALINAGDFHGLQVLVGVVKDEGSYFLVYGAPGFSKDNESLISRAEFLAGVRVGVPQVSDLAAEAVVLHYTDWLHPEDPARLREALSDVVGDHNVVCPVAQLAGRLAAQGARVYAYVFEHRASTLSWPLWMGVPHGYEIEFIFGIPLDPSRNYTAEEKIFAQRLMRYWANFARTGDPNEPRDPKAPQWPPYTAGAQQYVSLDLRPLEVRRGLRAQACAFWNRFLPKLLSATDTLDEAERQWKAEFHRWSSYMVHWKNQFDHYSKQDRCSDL
# Neuronal acetylcholine receptor subunit alpha-7, sequence (P36544 whole entry): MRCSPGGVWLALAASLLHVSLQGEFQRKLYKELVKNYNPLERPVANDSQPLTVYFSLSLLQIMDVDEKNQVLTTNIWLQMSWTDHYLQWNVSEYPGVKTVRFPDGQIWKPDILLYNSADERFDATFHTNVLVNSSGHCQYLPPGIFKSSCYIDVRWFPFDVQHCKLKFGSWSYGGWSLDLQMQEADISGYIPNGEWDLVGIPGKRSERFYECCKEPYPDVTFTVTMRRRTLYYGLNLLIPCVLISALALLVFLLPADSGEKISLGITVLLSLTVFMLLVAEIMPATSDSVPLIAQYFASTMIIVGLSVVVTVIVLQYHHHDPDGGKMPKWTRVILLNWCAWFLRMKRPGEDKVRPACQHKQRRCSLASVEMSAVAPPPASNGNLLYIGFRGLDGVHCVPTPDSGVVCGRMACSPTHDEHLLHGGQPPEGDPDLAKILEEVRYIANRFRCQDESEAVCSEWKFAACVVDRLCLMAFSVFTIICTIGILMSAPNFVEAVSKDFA
# Neuronal acetylcholine receptor; alpha4/beta2 (Rattus norvegicus, UniProt P09483+P12390), sequence (P09483 whole entry): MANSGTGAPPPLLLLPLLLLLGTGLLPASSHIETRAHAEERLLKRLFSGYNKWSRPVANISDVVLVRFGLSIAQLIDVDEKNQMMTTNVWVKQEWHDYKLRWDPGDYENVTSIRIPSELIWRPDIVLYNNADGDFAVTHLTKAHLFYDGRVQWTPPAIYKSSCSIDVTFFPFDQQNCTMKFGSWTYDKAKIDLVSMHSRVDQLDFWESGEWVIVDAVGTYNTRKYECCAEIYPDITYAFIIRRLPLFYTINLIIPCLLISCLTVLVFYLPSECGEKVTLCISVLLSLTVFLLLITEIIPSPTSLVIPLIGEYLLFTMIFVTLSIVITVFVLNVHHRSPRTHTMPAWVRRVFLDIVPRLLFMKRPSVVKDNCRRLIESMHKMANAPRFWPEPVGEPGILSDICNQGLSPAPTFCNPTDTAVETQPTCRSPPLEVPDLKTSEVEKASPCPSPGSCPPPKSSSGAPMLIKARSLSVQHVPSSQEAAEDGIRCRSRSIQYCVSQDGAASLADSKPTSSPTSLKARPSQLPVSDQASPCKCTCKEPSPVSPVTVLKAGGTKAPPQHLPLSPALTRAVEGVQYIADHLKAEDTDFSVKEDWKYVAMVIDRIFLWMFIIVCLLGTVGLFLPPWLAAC
# Neuronal acetylcholine receptor; alpha4/beta2 (Rattus norvegicus, UniProt P09483+P12390), sequence (P12390 whole entry): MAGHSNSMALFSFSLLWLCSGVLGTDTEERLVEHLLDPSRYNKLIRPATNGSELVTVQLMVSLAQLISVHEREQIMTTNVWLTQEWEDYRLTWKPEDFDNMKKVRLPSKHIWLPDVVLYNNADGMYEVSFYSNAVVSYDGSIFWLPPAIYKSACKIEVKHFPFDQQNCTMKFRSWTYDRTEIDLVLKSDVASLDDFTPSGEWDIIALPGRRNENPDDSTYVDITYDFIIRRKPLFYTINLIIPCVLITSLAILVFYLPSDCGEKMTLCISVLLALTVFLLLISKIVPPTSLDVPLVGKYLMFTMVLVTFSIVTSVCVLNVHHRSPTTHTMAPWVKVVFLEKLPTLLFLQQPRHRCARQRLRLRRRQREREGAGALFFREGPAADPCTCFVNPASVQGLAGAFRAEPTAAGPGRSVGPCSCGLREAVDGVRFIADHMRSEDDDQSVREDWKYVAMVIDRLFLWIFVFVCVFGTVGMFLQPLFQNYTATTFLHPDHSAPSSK
structure (smiles),measurement,setting,value
C[C@@H]1CC2N(C)CC3c4cccc(=O)n4CC2(O)C31 (stereo partly specified),IC50,[1],0.26 µM
same,Ki,[2],0.088 µM
Clc1ccc(C2CC3CCC2N3)cn1 (stereo in doubt; (-)) [EPIBATIDINE],IC50,[3],0.00024 µM
CN1CCC[C@H]1c1cccnc1,Activity,[4],333%
same,Emax,[5],113%
same,ED50,[6],250 µM
same,Emax,[7],87%
same,Imax,[8],159%
same,ED50,[9],14 µM
same,ED50,[10],40 µM
O=C(O)C[C@@H]1[C@@H](C(=O)O)NC[C@@H]1c1ccc(=O)[nH]c1C(=O)O,LD,[11],8 mg/kg
same,LD,[12],8 mg/kg
same,LD,[13],8 mg/kg
c1cc2c[n+](c1)CCCCCCCCCCCCCCc1ccc[n+](c1)CCCCCCCCCCCC2,IC50,[14],79 µM
same,IC50,[15],282 µM
same,IC50,[16],233 µM
"c1ccc(-c2cccnc2)nc1 [[2,3'']Bipyridinyl]",LD50,[17],94 µg
Clc1ccc(C2CC3CCC2N3)cn1 (stereo in doubt; (+)),ED50,[18],0.017 µM
same,ED50,[6],1.6 µM
same,ED50,[9],0.019 µM
same,Kapp,[19],6.9 µM
same,Kapp,[20],1.6 µM
same,inhibition,[21],70%
same,ED50,[10],1.1 µM
same,inhibition,[22],98%
O=C(O)C[C@@H]1[C@@H](C(=O)O)NC[C@@H]1c1ccc(C(=O)O)[nH]c1=O,LD,[11],7 mg/kg
same,LD,[12],7 mg/kg
same,LD,[13],7 mg/kg
C[N+](C)(C)CCOC(N)=O,Kapp,[19],22 µM
same,Kapp,[20],0.0049 µM
C1=C[C@H](c2cccnc2)NCC1,Imax,[23],102%
same,Ki,[24],0.136 µM
same,EC50,[25],0.31 µM
c1cc2c[n+](c1)CCCCCCCCCCCCc1ccc[n+](c1)CCCCCCCCCCCC2,IC50,[14],36.2 µM
same,IC50,[15],98.8 µM
same,IC50,[16],94.6 µM
CCCCCCCCCCCCCCCCc1ccc(C(=O)[O-])c[n+]1C,IC50,[26],2800 µM
CC(=O)OCC[N+](C)(C)C,Activity,[4],242%
c1cc2c[n+](c1)CCCCCCCCCCCCCc1ccc[n+](c1)CCCCCCCCCCCC2,IC50,[14],42.3 µM
same,IC50,[15],149 µM
same,IC50,[16],111 µM
COC(=O)c1cncc2c1C[C@H](O)[C@@H]2C,inhibition,[27],45%
same,inhibition,[28],90%
CCCCCCCCCCCCCCCCc1cc[n+](C)cc1C(=O)[O-],IC50,[26],2600 µM
CCCCCCCCCCCCCCCCc1c(C(=O)[O-])ccc[n+]1C,IC50,[26],2100 µM
c1cncc(-c2cc(-c3cccnc3-c3cccnc3)ccn2)c1,LD50,[17],> 240 µg

# — ChEMBL document CHEMBL4673260, “Pyridine alkaloids with activity in the central nervous system” (Bioorg Med Chem, 2020)
